Data: ChEMBL document CHEMBL1909046, “DrugMatrix in vitro pharmacology data”
pIC50, pKi: −log10 of the molar value.

Tests used:
[1] = DRUGMATRIX: Glutamate, Kainate radioligand binding (ligand: [3H] Kainic acid); type: cell membranes, Rattus norvegicus, Wistar, Brain, Membrane; conditions: Not Active = under 50% inhibition at 10 µM
[2] = DRUGMATRIX: Serotonin (5-Hydroxytryptamine) 5-HT3 radioligand binding (ligand: [3H] GR-65630); type: cell membranes, Membrane; conditions: hek293; Not Active = under 50% inhibition at 10 µM
[3] = target: T1, Vasoactive intestinal polypeptide receptor 1 (Homo sapiens, UniProt P32241); type: cell membranes, Membrane; conditions: ht-29; note: in other assays of this panel Not Active means under 50% inhibition at 10 µM
T1 sequence (P32241 whole entry): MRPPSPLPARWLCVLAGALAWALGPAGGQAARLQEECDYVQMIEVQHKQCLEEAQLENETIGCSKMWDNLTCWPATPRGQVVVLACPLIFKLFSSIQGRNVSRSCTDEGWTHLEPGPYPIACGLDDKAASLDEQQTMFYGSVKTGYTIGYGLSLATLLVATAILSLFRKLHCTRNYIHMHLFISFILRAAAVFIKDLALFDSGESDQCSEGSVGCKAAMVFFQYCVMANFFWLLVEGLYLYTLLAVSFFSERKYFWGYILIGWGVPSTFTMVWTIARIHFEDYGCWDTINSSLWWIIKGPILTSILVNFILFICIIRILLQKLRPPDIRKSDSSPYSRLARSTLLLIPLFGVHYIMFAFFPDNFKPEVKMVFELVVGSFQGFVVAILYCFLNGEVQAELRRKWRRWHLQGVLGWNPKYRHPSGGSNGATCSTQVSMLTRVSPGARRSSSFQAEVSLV

[4] = DRUGMATRIX: Sigma2 radioligand binding (ligand: [3H] Ifenprodil); type: cell membranes, Rattus norvegicus, Wistar, Brain, Membrane; conditions: Not Active = under 50% inhibition at 10 µM
Adenosine receptor A3 = target: T2, Adenosine receptor A3 (Homo sapiens, UniProt P0DMS8); type: cell membranes, CHO-K1, Membrane; conditions: cho-k1;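 note: radioligand binding assay with AB-MECA serving as the labeled ligand; in other assays of this panel Not Active means under 50% inhibition at 10 µM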
T2 sequence (P0DMS8 whole entry): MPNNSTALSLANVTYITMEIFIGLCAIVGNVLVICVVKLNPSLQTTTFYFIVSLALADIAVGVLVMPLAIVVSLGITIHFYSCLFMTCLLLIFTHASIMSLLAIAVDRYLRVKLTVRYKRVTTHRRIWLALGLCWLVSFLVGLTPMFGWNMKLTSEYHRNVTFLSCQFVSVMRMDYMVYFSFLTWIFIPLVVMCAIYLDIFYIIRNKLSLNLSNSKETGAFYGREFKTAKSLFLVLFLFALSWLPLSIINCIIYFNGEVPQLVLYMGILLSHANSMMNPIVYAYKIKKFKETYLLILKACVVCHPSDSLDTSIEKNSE

[5] = DRUGMATRIX: GABAA, Chloride Channel, TBOB radioligand binding (ligand: [3H] TBOB); type: cell membranes, Rattus norvegicus, Wistar, Cerebral cortex, Membrane; conditions: Not Active = under 50% inhibition at 10 µM
Adenosine receptor A1 = target: T3, Adenosine receptor A1 (Homo sapiens, UniProt P30542); type: cell membranes, CHO, Membrane; conditions: cho;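 note: radioligand binding assay at the adenosine A1 receptor, with DPCPX serving as the labelled ligand; in other assays of this panel Not Active means under 50% inhibition at 10 µM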
T3 sequence (P30542 whole entry): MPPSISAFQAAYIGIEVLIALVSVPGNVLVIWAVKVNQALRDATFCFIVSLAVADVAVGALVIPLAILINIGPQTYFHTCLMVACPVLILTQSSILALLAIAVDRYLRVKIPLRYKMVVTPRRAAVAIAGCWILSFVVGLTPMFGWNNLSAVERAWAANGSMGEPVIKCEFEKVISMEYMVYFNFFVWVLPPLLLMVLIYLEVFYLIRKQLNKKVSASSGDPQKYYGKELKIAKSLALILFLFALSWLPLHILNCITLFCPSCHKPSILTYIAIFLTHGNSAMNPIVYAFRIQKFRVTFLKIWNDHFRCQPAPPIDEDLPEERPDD

| Compound | IC50 [1] | Ki [1] | IC50 [2] | Ki [2] | IC50 [3] | IC50 [4] | Ki [4] | IC50 (Adenosine receptor A3) | IC50 [5] | Ki [5] | IC50 (Adenosine receptor A1) | pIC50 ([4]; read-out: IC50) | pKi ([4]; read-out: Ki) | Ki [3] | Ki (Adenosine receptor A3) | Ki (Adenosine receptor A1) |
| --- | --- | --- | --- | --- | --- | --- | --- | --- | --- | --- | --- | --- | --- | --- | --- | --- |
| Cc1ccccc1N1C(=O)c2cc(S(N)(=O)=O)c(Cl)cc2NC1C (configuration not stated) [METOLAZONE] | Not Active | Not Active | Not Active | Not Active | Not Active | Not Active | Not Active | Not Active | Not Active | Not Active | Not Active |  |  |  |  |  |
| O=C1CC[C@@H](N2C(=O)c3ccccc3C2=O)C(=O)N1 | Not Active | Not Active | Not Active | Not Active | Not Active | Not Active | Not Active | Not Active | Not Active | Not Active | Not Active |  |  |  |  |  |
| Nc1c(Br)cc(Br)cc1CN[C@H]1CC[C@H](O)CC1 [AMBROXOL] | Not Active | Not Active | Not Active | Not Active | Not Active | Not Active | Not Active | Not Active | Not Active | Not Active | Not Active |  |  |  |  |  |
| Nc1nc2c(ncn2COCCO)c(=O)[nH]1 [ACYCLOVIR] | Not Active | Not Active | Not Active | Not Active | Not Active | Not Active | Not Active | Not Active | Not Active | Not Active | Not Active |  |  |  |  |  |
| CN(C)CCCN1c2ccccc2Sc2ccccc21 [PROMAZINE] | Not Active | Not Active | Not Active | Not Active | Not Active |  |  | Not Active | Not Active | Not Active | Not Active | 5.60 | 5.81 |  |  |  |
| CC1(C)O[C@@H]2C[C@H]3[C@@H]4CCC5=CC(=O)CC[C@]5(C)[C@@]4(F)[C@@H](O)C[C@]3(C)[C@]2(C(=O)CCl)O1 [HALCINONIDE] | Not Active | Not Active | Not Active | Not Active | Not Active | Not Active | Not Active | Not Active | Not Active | Not Active | Not Active |  |  |  |  |  |
| CC1CC(OC(=O)C(O)c2ccccc2)CC(C)(C)C1 (configuration not stated) [CYCLANDELATE] | Not Active | Not Active | Not Active | Not Active | Not Active | Not Active | Not Active | Not Active | Not Active | Not Active | Not Active |  |  |  |  |  |
| LEAD (II) ACETATE | Not Active | Not Active | Not Active | Not Active | Not Active | Not Active | Not Active | Not Active | Not Active | Not Active | Not Active |  |  | Not Active | Not Active | Not Active |
| Sc1ncnc2nc[nH]c12 [MERCAPTOPURINE ANHYDROUS] | Not Active | Not Active | Not Active | Not Active | Not Active | Not Active | Not Active | Not Active | Not Active | Not Active | Not Active |  |  |  |  |  |
| O=c1[nH]c(=O)n([C@H]2C[C@H](O)[C@@H](CO)O2)cc1I [IDOXURIDINE] | Not Active | Not Active | Not Active | Not Active | Not Active | Not Active | Not Active | Not Active | Not Active | Not Active | Not Active |  |  |  |  |  |
| CC1(C)S[C@@H]2[C@H](NC(=O)Cc3ccccc3)C(=O)N2[C@H]1C(=O)O [PENICILLIN G] | Not Active | Not Active | Not Active | Not Active | Not Active | Not Active | Not Active | Not Active | Not Active | Not Active | Not Active |  |  |  |  |  |
| CC1=C2C(=CO[C@H](C)[C@H]2C)C(O)=C(C(=O)O)C1=O [CITRININ] | Not Active | Not Active | Not Active | Not Active | Not Active | Not Active | Not Active | Not Active | Not Active | Not Active | Not Active |  |  |  |  |  |
| Cc1c(C)c2c(c(C)c1O)CC[C@@](C)(CCC[C@H](C)CCC[C@H](C)CCCC(C)C)O2 [ALPHA-TOCOPHEROL] | Not Active | Not Active | Not Active | Not Active | Not Active | Not Active | Not Active | Not Active | Not Active | Not Active | Not Active |  |  |  |  |  |
| O=C(O)CCCc1ccc(N(CCCl)CCCl)cc1 [CHLORAMBUCIL] | Not Active | Not Active | Not Active | Not Active | Not Active | Not Active | Not Active | Not Active | Not Active | Not Active | Not Active |  |  |  |  |  |
| CC[C@@]1(O)C[C@H](O[C@H]2C[C@H](N(C)C)[C@H](O[C@H]3C[C@H](O)[C@H](O[C@H]4CCC(=O)[C@H](C)O4)[C@H](C)O3)[C@H](C)O2)c2c(cc3c(c2O)C(=O)c2c(O)cccc2C3=O)[C@H]1C(=O)OC [ACLARUBICIN] | Not Active | Not Active | Not Active | Not Active | Not Active | Not Active | Not Active | Not Active | Not Active | Not Active | Not Active |  |  |  |  |  |
| CC(=O)O[C@@]12CO[C@@H]1C[C@H](O)[C@@]1(C)C(=O)[C@H](O)C3=C(C)[C@@H](OC(=O)[C@H](O)[C@@H](NC(=O)OC(C)(C)C)c4ccccc4)C[C@@](O)([C@@H](OC(=O)c4ccccc4)[C@H]21)C3(C)C.O.O.O [DOCETAXEL] | Not Active | Not Active | Not Active | Not Active | Not Active | Not Active | Not Active | Not Active | Not Active | Not Active | Not Active |  |  |  |  |  |
| CC(C)CN(C[C@@H](O)[C@H](Cc1ccccc1)NC(=O)O[C@H]1CCOC1)S(=O)(=O)c1ccc(N)cc1 | Not Active | Not Active | Not Active | Not Active | Not Active | Not Active | Not Active | Not Active | Not Active | Not Active | Not Active |  |  |  |  |  |
| C[C@](N)(Cc1ccc(O)c(O)c1)C(=O)O [METHYLDOPA] | Not Active | Not Active | Not Active | Not Active | Not Active | Not Active | Not Active | Not Active | Not Active | Not Active | Not Active |  |  |  |  |  |
| Nc1nc(N)nc(-c2cc(Cl)ccc2Cl)n1.O=C(O)/C=C\C(=O)O [IRSOGLADINE MALEATE] | Not Active | Not Active | Not Active | Not Active | Not Active | Not Active | Not Active | Not Active | Not Active | Not Active | Not Active |  |  |  |  |  |
| Nc1ncn([C@@H]2O[C@H](CO)[C@@H](O)[C@H]2O)c(=O)n1 [AZACITIDINE] | Not Active | Not Active | Not Active | Not Active | Not Active | Not Active | Not Active | Not Active | Not Active | Not Active | Not Active |  |  |  |  |  |
| LIPOPOLYSACCHARIDE E. COLI O55:B5 | Not Active | Not Active | Not Active | Not Active | Not Active | Not Active | Not Active | Not Active | Not Active | Not Active | Not Active |  |  | Not Active | Not Active | Not Active |
